Assay results taken from PubChem BioAssay AID248 (DTP/NCI, 2004).
Where “and” joins values, the source holds several entries; their conditions need not be identical. Identical values can stand only once. Inconclusive results and toxic doses are left out. Cut-off read from the data, not from the text of the source: active = T/C of 150% or more; inactive = T/C below 125%.

System: L1210 leukemia ip in BDF1 mice, survival T/C
Test: NCI In Vivo Anticancer Drug Screen. Data for tumor model L1210 Leukemia (intraperitoneal) in B6D2F1 (BDF1) mice
Conditions: endpoint: mean survival time, higher = longer survival
Summary of the method: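 Read-out is survival time, reported as the treated-group measurement over the vehicle-control measurement.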

[1] = dose: 100.0 mg/kg/injection, schedule: Q01DX001 (ip), vehicle: saline
[2] = dose: 100.0 mg/kg/injection, schedule: Q01DX009 (ip), vehicle: saline
[3] = dose: 200.0 mg/kg/injection, schedule: Q01DX001 (ip), vehicle: saline
[4] = dose: 400.0 mg/kg/injection, schedule: Q01DX001 (ip), vehicle: saline
[5] = dose: 10.0 mg/kg/injection, schedule: Q01DX001 (ip), vehicle: saline
[6] = dose: 20.0 mg/kg/injection, schedule: Q01DX001 (ip), vehicle: saline
[7] = dose: 100.0 mg/kg/injection, schedule: Q01DX009 (ip), vehicle: saline with Tween-80
[8] = dose: 200.0 mg/kg/injection, schedule: Q01DX009 (ip), vehicle: saline with Tween-80
[9] = dose: 100.0 mg/kg/injection, schedule: Q04DX003 (ip), vehicle: Klucel (hydroxypropylcellulose) (HPC)
[10] = dose: 200.0 mg/kg/injection, schedule: Q04DX003 (ip), vehicle: Klucel (hydroxypropylcellulose) (HPC)
[11] = dose: 400.0 mg/kg/injection, schedule: Q04DX003 (ip), vehicle: Klucel (hydroxypropylcellulose) (HPC)
[12] = dose: 50.0 mg/kg/injection, schedule: Q04DX003 (ip), vehicle: saline
[13] = dose: 100.0 mg/kg/injection, schedule: Q04DX003 (ip), vehicle: saline
[14] = dose: 200.0 mg/kg/injection, schedule: Q04DX003 (ip), vehicle: saline
[15] = dose: 400.0 mg/kg/injection, schedule: Q04DX003 (ip), vehicle: saline
[16] = dose: 100.0 mg/kg/injection, schedule: Q01DX001 (ip), vehicle: Klucel (hydroxypropylcellulose) (HPC)
[17] = dose: 200.0 mg/kg/injection, schedule: Q01DX001 (ip), vehicle: Klucel (hydroxypropylcellulose) (HPC)
[18] = dose: 400.0 mg/kg/injection, schedule: Q01DX001 (ip), vehicle: Klucel (hydroxypropylcellulose) (HPC)
[19] = dose: 100.0 mg/kg/injection, schedule: Q04DX002 (ip), vehicle: Klucel (hydroxypropylcellulose) (HPC)
[20] = dose: 200.0 mg/kg/injection, schedule: Q04DX002 (ip), vehicle: Klucel (hydroxypropylcellulose) (HPC)
[21] = dose: 400.0 mg/kg/injection, schedule: Q04DX002 (ip), vehicle: Klucel (hydroxypropylcellulose) (HPC)

Measured: T/C

COC(=O)C1C(C(=O)OC)C2C3OC(=O)C(C2C(=O)OC)C1C3C (stereo not drawn)
inactive: [1] 103 % of control | [2] 100 % of control | [3] 98 % of control | dose: 200.0 mg/kg/injection, schedule: Q01DX009 (ip), vehicle: saline 103 % of control | [4] 101 % of control | dose: 400.0 mg/kg/injection, schedule: Q01DX009 (ip), vehicle: saline 87 % of control

CO[C@H]1C=CC2=CCN3CCC4=C(CC(=O)OC4)[C@]23C1
inactive: [5] 104 % of control | [6] 96 % of control

CCOC(=O)c1cnc(SC)[nH]c1=O
inactive: dose: 50.0 mg/kg/injection, schedule: Q01DX001 (ip), vehicle: saline 92 % of control | [1] 95 % of control | [3] 98 % of control | [4] 98 % of control

CC(C)CNNCC(C)C
inactive: dose: 75.0 mg/kg/injection, schedule: Q01DX001 (ip), vehicle: other 103 % of control

COC(=O)[CH]([Hg][O]C(C)=O)C(OC)c1ccccc1 (stereo not drawn)
inactive: dose: 3.0 mg/kg/injection, schedule: Q04DX002 (ip), vehicle: carboxymethylcellulose (CMC) 86 % of control | dose: 6.0 mg/kg/injection, schedule: Q04DX002 (ip), vehicle: carboxymethylcellulose (CMC) 93 % of control | dose: 12.5 mg/kg/injection, schedule: Q04DX002 (ip), vehicle: carboxymethylcellulose (CMC) 94 % of control | dose: 25.0 mg/kg/injection, schedule: Q04DX002 (ip), vehicle: carboxymethylcellulose (CMC) 98 % of control

C=CCc1ccccc1OC
inactive: [7] 102 % of control | [8] 95 % of control

COC(=O)NC(=S)Nc1ccccc1NC(=S)NC(=O)OC
inactive: dose: 25.0 mg/kg/injection, schedule: Q01DX009 (ip), vehicle: Klucel (hydroxypropylcellulose) (HPC) 94 % of control | dose: 50.0 mg/kg/injection, schedule: Q01DX009 (ip), vehicle: Klucel (hydroxypropylcellulose) (HPC) 102 % of control | dose: 100.0 mg/kg/injection, schedule: Q01DX009 (ip), vehicle: Klucel (hydroxypropylcellulose) (HPC) 105 % of control | [9] 96 % of control | [10] 99 % of control | [11] 87 % of control

c1ccc([Si]2(c3ccccc3)O[Si](c3ccccc3)(c3ccccc3)O[Si](c3ccccc3)(c3ccccc3)O2)cc1
inactive: dose: 75.0 mg/kg/injection, schedule: Q01DX001 (ip), vehicle: saline 93 % of control | dose: 150.0 mg/kg/injection, schedule: Q01DX001 (ip), vehicle: saline 87 % of control

Cc1ccc(C(=O)O)cc1[N+](=O)[O-]
inactive: [9] 95 % of control | [10] 92 % of control | [11] 103 % of control

CCN=C1N[N+]2=CCCCC2S1 (stereo not drawn)
inactive: [12] 103 % of control | [13] 109 % of control

C/C(=N/Nc1ccc2c(O)cc(S(=O)(=O)O)cc2c1)c1ccc(Cl)cc1
inactive: dose: 75.0 mg/kg/injection, schedule: Q01DX009 (ip), vehicle: saline 101 % of control | dose: 150.0 mg/kg/injection, schedule: Q01DX009 (ip), vehicle: saline 98 % of control | dose: 300.0 mg/kg/injection, schedule: Q01DX009 (ip), vehicle: saline 96 % of control

N#CCCP(=O)(CCC#N)CCC#N
inactive: [12] 98 % of control | [13] 98 % of control | [14] 101 % of control | [15] 101 % of control

O=C(Nc1ccccc1)C1C2CC3OC(=O)C1C3C2 (stereo not drawn)
inactive: [13] 104 % of control and 102 % of control | [14] 95 % of control and 92 % of control | [15] 98 % of control and 104 % of control

Nc1cc(OCc2ccccc2)cc(OCc2ccccc2)c1
inactive: dose: 25.0 mg/kg/injection, schedule: Q01DX009 (ip), vehicle: water 89 % of control | dose: 50.0 mg/kg/injection, schedule: Q01DX009 (ip), vehicle: water 97 % of control | dose: 100.0 mg/kg/injection, schedule: Q01DX009 (ip), vehicle: water 93 % of control

C1=CC2C3CC(OCCOC4CC5CC4C4CC=CC54)C(C3)C2C1 (stereo not drawn)
inactive: [7] 97 % of control | dose: 100.0 mg/kg/injection, schedule: Q04DX003 (ip), vehicle: saline with Tween-80 98 % of control | [8] 93 % of control | dose: 200.0 mg/kg/injection, schedule: Q04DX003 (ip), vehicle: saline with Tween-80 100 % of control | dose: 400.0 mg/kg/injection, schedule: Q01DX009 (ip), vehicle: saline with Tween-80 104 % of control | dose: 400.0 mg/kg/injection, schedule: Q04DX003 (ip), vehicle: saline with Tween-80 95 % of control

CN(C)c1ccc(C(N)=O)cn1
inactive: dose: 16.5 mg/kg/injection, schedule: Q01DX009 (ip), vehicle: saline with Tween-80 102 % of control | dose: 29.0 mg/kg/injection, schedule: Q04DX003 (ip), vehicle: saline 112 % of control | dose: 45.0 mg/kg/injection, schedule: Q04DX003 (ip), vehicle: saline 120 % of control | dose: 66.0 mg/kg/injection, schedule: Q04DX003 (ip), vehicle: saline 113 % of control | [13] 114 % of control | [14] 102 % of control

CC(C)C(C)(O)C#N (stereo not drawn)
inactive: dose: 5.0 mg/kg/injection, schedule: Q01DX001 (ip), vehicle: saline 92 % of control | [5] 97 % of control | [6] 100 % of control

NC(CO)C(O)c1ccc(-c2ccccc2)cc1 (stereo not drawn)
inactive: dose: 75.0 mg/kg/injection, schedule: Q04DX003 (ip), vehicle: Klucel (hydroxypropylcellulose) (HPC) 108 % of control | [16] 94 % of control | dose: 150.0 mg/kg/injection, schedule: Q04DX003 (ip), vehicle: Klucel (hydroxypropylcellulose) (HPC) 106 % of control | [17] 92 % of control | dose: 300.0 mg/kg/injection, schedule: Q04DX003 (ip), vehicle: Klucel (hydroxypropylcellulose) (HPC) 101 % of control | [18] 92 % of control

COc1ccc(OC)c(-n2cccc2/C=N/NC(N)=O)c1
inactive: [19] 97 % of control | [20] 108 % of control | [21] 93 % of control

C1CCCC(=[N+]2CCCC2)CCC1
inactive: [2] 100 % of control

COC(=O)c1cccc([N+](=O)[O-])c1
inactive: [1] 96 % of control | [3] 94 % of control | [4] 100 % of control

CCCCNS(=O)(=O)c1ccc(C(N)=S)cc1
inactive: [16] 111 % of control | [17] 106 % of control | [18] 103 % of control

N#CCCN(C(=O)Nc1ccc(Cl)c(Cl)c1)C1CCCCC1
inactive: [19] 107 % of control | [20] 100 % of control | [21] 111 % of control

COc1cc2c(cc1OC)C1(NCC2)C(=O)c2ccccc2C1=O
inactive: [16] 100 % of control | [17] 106 % of control | [18] 117 % of control

C1[CH2][Hg][CH2]CO1
inactive: dose: 100.0 mg/kg/injection, schedule: Q04DX002 (ip), vehicle: saline 100 % of control | dose: 200.0 mg/kg/injection, schedule: Q04DX002 (ip), vehicle: saline 100 % of control

CS(=O)(=O)OCCNc1ccc([N+](=O)[O-])cc1
inactive: dose: 1.0 mg/kg/injection, schedule: Q01DX001 (ip), vehicle: saline 101 % of control | dose: 2.0 mg/kg/injection, schedule: Q01DX001 (ip), vehicle: saline 101 % of control | dose: 4.0 mg/kg/injection, schedule: Q01DX001 (ip), vehicle: saline 98 % of control | dose: 8.0 mg/kg/injection, schedule: Q01DX001 (ip), vehicle: saline 104 % of control | dose: 38.0 mg/kg/injection, schedule: Q01DX015 (ip), vehicle: saline 98 % of control | dose: 57.0 mg/kg/injection, schedule: Q01DX015 (ip), vehicle: saline 95 % of control | dose: 85.0 mg/kg/injection, schedule: Q01DX015 (ip), vehicle: saline 93 % of control

Clc1cc2c(cc1Cl)OB(c1ccccc1)O2
inactive: dose: 100.0 mg/kg/injection, schedule: Q04DX003 (ip), vehicle: alcohol 113 % of control | dose: 200.0 mg/kg/injection, schedule: Q04DX003 (ip), vehicle: alcohol 106 % of control
